ChEMBL document CHEMBL3861993, “Alternative core development around the tetracyclic indole class of HCV NS5A inhibitors” (Bioorg Med Chem Lett, 2016)

Columns and labels:
[1] = tested on: T1, Nonstructural protein 5A (Hepatitis C virus), Q5L478 [Y93H]; assay: Inhibition of HCV genotype 1a NS5A Y93H mutant after 3 day incubation by RT-PCR-cell-based HCV replicon assay; settings: Hepatitis C virus subtype 1a
T1 sequence (whole entry): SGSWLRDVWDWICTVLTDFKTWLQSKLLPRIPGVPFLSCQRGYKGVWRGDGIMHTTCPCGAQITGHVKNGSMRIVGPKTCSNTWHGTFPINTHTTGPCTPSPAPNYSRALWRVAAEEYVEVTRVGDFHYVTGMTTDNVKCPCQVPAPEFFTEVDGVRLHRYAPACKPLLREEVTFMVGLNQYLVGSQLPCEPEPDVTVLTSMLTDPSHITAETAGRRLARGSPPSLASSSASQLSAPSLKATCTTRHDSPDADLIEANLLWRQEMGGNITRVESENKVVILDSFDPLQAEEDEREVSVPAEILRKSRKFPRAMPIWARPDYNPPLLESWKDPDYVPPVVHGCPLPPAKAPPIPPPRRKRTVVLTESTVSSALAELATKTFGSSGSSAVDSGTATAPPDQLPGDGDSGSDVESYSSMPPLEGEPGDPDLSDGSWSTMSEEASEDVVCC

[2] = tested on: Hepatitis C virus subtype 3a; assay: Inhibition of HCV genotype 3a NS5A after 3 day incubation by RT-PCR-cell-based HCV replicon assay
[3] = tested on: Nonstructural protein 5A (Hepatitis C virus), Q5L478 [UNDEFINED MUTATION]; assay: Inhibition of HCV genotype 1a NS5A L31V mutant after 3 day incubation by RT-PCR-cell-based HCV replicon assay; settings: Hepatitis C virus subtype 1a
[4] = tested on: Hepatitis C virus subtype 2b; assay: Inhibition of HCV genotype 2b NS5A harboring methionine at position 31 after 3 day incubation by RT-PCR-cell-based HCV replicon assay
[5] = tested on: Hepatitis C virus subtype 1a; assay: Inhibition of HCV genotype 1a NS5A after 3 day incubation by RT-PCR-cell-based HCV replicon assay
[6] = tested on: Hepatitis C virus subtype 4a; assay: Inhibition of HCV genotype 4a NS5A after 3 day incubation by RT-PCR-cell-based HCV replicon assay
[7] = AUC in rat at 3 mg/kg, iv or 10 mg/kg, po; format: ADME, organism-based; settings: in vivo
[8] = Oral bioavailability in rat at 10 mg/kg; format: ADME, organism-based; settings: in vivo
[9] = Half life in rat at 2 mg/kg, iv or 10 mg/kg, po; format: ADME, organism-based; settings: in vivo
[10] = AUC in rat at 10 mg/kg, po; format: ADME, organism-based; settings: in vivo
[11] = Cmax in rat at 2 mg/kg, iv or 10 mg/kg, po; format: ADME, organism-based; settings: in vivo
[12] = Clearance in rat at 2 mg/kg, iv or 10 mg/kg, po; format: ADME, organism-based; settings: in vivo
[13] = Cmax in rat at 2.5 mg/kg, iv or 5 mg/kg, po; format: ADME, organism-based; settings: in vivo
[14] = Half life in rat at 2.5 mg/kg, iv or 5 mg/kg, po; format: ADME, organism-based; settings: in vivo
[15] = Clearance in rat at 2.5 mg/kg, iv or 5 mg/kg, po; format: ADME, organism-based; settings: in vivo
[16] = AUC in rat at 5 mg/kg, po; format: ADME, organism-based; settings: in vivo
[17] = Oral bioavailability in rat at 5 mg/kg; format: ADME, organism-based; settings: in vivo

Row | SMILES | EC90 [1] | EC90 [2] | EC90 [3] | EC90 [4] | EC90 [5] | EC90 [6] | AUC [7] | bioavailability [8] | half-life [9] | AUC [10] | Cmax [11] | clearance [12] | Cmax [13] | half-life [14] | clearance [15] | AUC [16] | bioavailability [17]
1 | COC(=O)N[C@H](C(=O)N1CCC[C@H]1c1ncc(-c2ccc3c(c2)Oc2ccc(-c4cnc([C@@H]5CCCN5C(=O)[C@@H](NC(=O)OC)C(C)C)[nH]4)c4c2N3CCC4)[nH]1)C(C)C | 441 nM | > 10 nM | 100 nM | 100 nM | > 0.1 nM | 4.81 nM |  |  |  |  |  |  |  |  |  |  | 
2 | COC(=O)N[C@H](C(=O)N1CCC[C@H]1c1ncc(-c2cc3c4c(c2)CCc2cc(-c5cnc([C@@H]6CCCN6C(=O)[C@@H](NC(=O)OC)C(C)C)[nH]5)cc(c2-4)CC3)[nH]1)C(C)C | 57 nM | 2 nM | 18.9 nM | > 100 nM | 0.05 nM | 0.8 nM |  |  |  |  |  |  |  |  |  |  | 
3 | COC(=O)N[C@H](C(=O)N1CCC[C@H]1c1ncc(-c2cc3c4c(c2)CCc2cc(-c5cnc([C@@H]6CC(F)(F)CN6C(=O)[C@@H](NC(=O)OC)C(C)C)[nH]5)cc(c2-4)CC3)[nH]1)C(C)C | 30.2 nM | > 10 nM | 20.7 nM | > 100 nM | 0.07 nM | 0.6 nM |  |  |  |  |  |  |  |  |  |  | 
4 | COC(=O)N[C@H](C(=O)N1CCC[C@H]1c1ncc(-c2ccc3c(c2)OC(c2cccc(OC)c2)C2=C3COc3cc(-c4cnc([C@@H]5CCCN5C(=O)[C@@H](NC(=O)OC)C(C)C)[nH]4)ccc32)[nH]1)C(C)C (stereo not given in full) | 12 nM | 1.93 nM | 0.3 nM | 4.7 nM | 0.039 nM |  |  |  |  |  |  |  |  |  |  |  | 
5 | COC(=O)N[C@H](C(=O)N1CCC[C@H]1c1ncc(-c2ccc3c(c2)OC(C)C2=C3COc3cc(-c4cnc([C@@H]5CCCN5C(=O)[C@@H](NC(=O)OC)C(C)C)[nH]4)ccc32)[nH]1)C(C)C (stereo not given in full) | 55.1 nM |  | 1.52 nM | 28.1 nM | 0.028 nM |  |  |  |  |  |  |  |  |  |  |  | 
6 | COC(=O)N[C@H](C(=O)N1CCC[C@H]1c1ncc(-c2ccc3c(c2)Oc2ccc(-c4cnc([C@@H]5CCCN5C(=O)[C@@H](NC(=O)OC)C(C)C)[nH]4)c4c2N3CCO4)[nH]1)C(C)C | 361 nM | 4.69 nM | 100 nM | 100 nM | 0.005 nM | 2.48 nM |  |  |  |  |  |  |  |  |  |  | 
7 | COC(=O)N[C@H](C(=O)N1CCC[C@H]1c1ncc(-c2ccc3c(c2)Oc2ccc(-c4cnc([C@@H]5CCCN5C(=O)[C@@H](NC(=O)OC)C(C)C)[nH]4)c4cnn-3c24)[nH]1)C(C)C | 124 nM | 1.59 nM | 62.3 nM | 100 nM | 0.04 nM | 0.76 nM |  |  |  |  |  |  |  |  |  |  | 
8 | COC(=O)N[C@H](C(=O)N1CCC[C@H]1c1ncc(-c2ccc3c(c2)OCn2c-3cc3cc(-c4cnc([C@@H]5CCCN5C(=O)[C@@H](NC(=O)OC)C(C)C)[nH]4)ccc32)[nH]1)C(C)C | > 100 nM | > 1 nM | 6.5 nM | 75.7 nM | 0.02 nM | 0.18 nM |  |  |  |  |  |  |  |  |  |  | 
9 | COC(=O)N[C@H](C(=O)N1CCC[C@H]1c1ncc(-c2ccc3c(c2)Oc2ccc(-c4cnc([C@@H]5CCCN5C(=O)[C@@H](NC(=O)OC)C(C)C)[nH]4)c4c2N3CC4)[nH]1)C(C)C | 685 nM | 4.42 nM | 100 nM |  | > 0.1 nM | 8.17 nM |  |  |  |  |  |  |  |  |  |  | 
10 | COC(=O)N[C@H](C(=O)N1CCC[C@H]1c1ncc(-c2ccc3c(c2)Oc2ccc(-c4cnc([C@@H]5CC(F)(F)CN5C(=O)[C@@H](NC(=O)OC)C(C)C)[nH]4)c4ccn-3c24)[nH]1)C(C)C | 22 nM |  | 17.2 nM | 342 nM | 0.02 nM |  | 3.98 µM·h | 15% |  |  |  |  |  |  |  |  | 
11 | COC(=O)N[C@H](C(=O)N1CCC[C@H]1c1ncc(-c2ccc3c(c2)OCc2c-3c(=O)oc3cc(-c4cnc([C@@H]5CCCN5C(=O)[C@@H](NC(=O)OC)C(C)C)[nH]4)ccc23)[nH]1)C(C)C | > 50 nM | > 1 nM | 58.6 nM | 113 nM | 0.01 nM | 0.18 nM |  |  |  |  |  |  |  |  |  |  | 
12 | COC(=O)N[C@H](C(=O)N1CCC[C@H]1c1ncc(-c2ccc3c(c2)OCC2=C3COc3cc(-c4cnc([C@@H]5CCCN5C(=O)[C@@H](NC(=O)OC)C(C)C)[nH]4)ccc32)[nH]1)C(C)C | > 100 nM | > 1 nM | 0.33 nM | 24.7 nM | 0.01 nM | 0.18 nM |  | 14% | 2.7 h | 5.57 µM·h | 660 nM | 5.3 mL/min/kg |  |  |  |  | 
13 | COC(=O)N[C@H](C(=O)N1CCC[C@H]1c1ncc(-c2cc3c4c(c2)CCc2cc(-c5cnc([C@@H]6C[C@@H](F)CN6C(=O)[C@@H](NC(=O)OC)C(C)C)[nH]5)cc(c2-4)CC3)[nH]1)C(C)C | 22.7 nM | 6 nM | 26.2 nM | > 100 nM | 0.052 nM | 5.5 nM |  |  |  |  |  |  |  |  |  |  | 
14 | COC(=O)N[C@H](C(=O)N1CCC[C@H]1c1ncc(-c2ccc3c(c2)OC(c2ccccc2)C2=C3COc3cc(-c4cnc([C@@H]5CCCN5C(=O)[C@@H](NC(=O)OC)C(C)C)[nH]4)ccc32)[nH]1)C(C)C (stereo not given in full) | > 100 nM | 0.56 nM | 0.28 nM | 8.46 nM | 0.017 nM | 0.17 nM |  |  |  |  |  |  |  |  |  |  | 
15 | COC(=O)N[C@H](C(=O)N1CCC[C@H]1c1nc(-c2ccc3c(c2)O[C@@H](c2ccccc2)n2c-3cc3cc(-c4c[nH]c([C@@H]5CCCN5C(=O)[C@@H](NC(=O)OC)C(C)C)n4)ccc32)c[nH]1)C(C)C |  | 0.12 nM |  | 11 nM | 0.006 nM | 0.016 nM |  |  |  |  |  |  |  |  |  |  | 
16 | COC(=O)N[C@H](C(=O)N1CCC[C@H]1c1ncc(-c2ccc3c(c2)Oc2ccc(-c4cnc([C@@H]5CCCN5C(=O)[C@@H](NC(=O)OC)C(C)C)[nH]4)c4occ-3c24)[nH]1)C(C)C | 132 nM | 0.32 nM | 100 nM | 100 nM | 0.03 nM | 0.31 nM |  |  |  |  |  |  | 830 nM | 1.9 h | 8.5 mL/min/kg | 4.28 µM·h | 34%
17 | COC(=O)N[C@H](C(=O)N1CCC[C@H]1c1ncc(-c2ccc3c(c2)Oc2ccc(-c4cnc([C@@H]5CCCN5C(=O)[C@@H](NC(=O)OC)C(C)C)[nH]4)c4ccn-3c24)[nH]1)C(C)C | 122 nM | 0.69 nM | 90.2 nM |  | 0.06 nM | 0.31 nM |  |  |  |  |  |  |  |  |  |  | 
18 | COC(=O)N[C@H](C(=O)N1CCC[C@H]1c1ncc(-c2ccc3c(c2)OC(C2CC2)C2=C3COc3cc(-c4cnc([C@@H]5CCCN5C(=O)[C@@H](NC(=O)OC)C(C)C)[nH]4)ccc32)[nH]1)C(C)C (stereo not given in full) | 41 nM | 10.7 nM | 1.7 nM | 5.2 nM | 0.063 nM |  |  |  |  |  |  |  |  |  |  |  | 
